# According to US20260317324A1, “BIFUNCTIONAL COMPOUNDS FOR DEGRADING BRAF VIA UBIQUITIN PROTEOSOME PATHWAY” (Nurix Therapeutics, Inc., priority 2023, published 2026):
# Legend:
# Format in all cases: cell-based
# BRAF V600E = molecular target: T1, BRAF V600E (Homo sapiens, UniProt P15056, V600E); assay: BRAF HiBiT degradation assay, C-terminal HiBiT-tagged BRAF V600E A375 cells (clone 1F10), Nano-Glo HiBiT Lytic assay; settings: A375 (BRAF V600E, Class 1); for DC50: DC50 at 50% degradation; for Dmax: A-375, observed Dmax, % protein degraded relative to DMSO control
# T1 construct: endogenous C-terminal HiBiT fusion tag on BRAF V600E allele; endogenous in cells; host or cells: A375 clone 1F10 (CRISPR-Cas9 knock-in of the HiBiT tag; parental A375 from ATCC)
# T1 sequence (P15056 whole entry V600E, the tested form may be a part): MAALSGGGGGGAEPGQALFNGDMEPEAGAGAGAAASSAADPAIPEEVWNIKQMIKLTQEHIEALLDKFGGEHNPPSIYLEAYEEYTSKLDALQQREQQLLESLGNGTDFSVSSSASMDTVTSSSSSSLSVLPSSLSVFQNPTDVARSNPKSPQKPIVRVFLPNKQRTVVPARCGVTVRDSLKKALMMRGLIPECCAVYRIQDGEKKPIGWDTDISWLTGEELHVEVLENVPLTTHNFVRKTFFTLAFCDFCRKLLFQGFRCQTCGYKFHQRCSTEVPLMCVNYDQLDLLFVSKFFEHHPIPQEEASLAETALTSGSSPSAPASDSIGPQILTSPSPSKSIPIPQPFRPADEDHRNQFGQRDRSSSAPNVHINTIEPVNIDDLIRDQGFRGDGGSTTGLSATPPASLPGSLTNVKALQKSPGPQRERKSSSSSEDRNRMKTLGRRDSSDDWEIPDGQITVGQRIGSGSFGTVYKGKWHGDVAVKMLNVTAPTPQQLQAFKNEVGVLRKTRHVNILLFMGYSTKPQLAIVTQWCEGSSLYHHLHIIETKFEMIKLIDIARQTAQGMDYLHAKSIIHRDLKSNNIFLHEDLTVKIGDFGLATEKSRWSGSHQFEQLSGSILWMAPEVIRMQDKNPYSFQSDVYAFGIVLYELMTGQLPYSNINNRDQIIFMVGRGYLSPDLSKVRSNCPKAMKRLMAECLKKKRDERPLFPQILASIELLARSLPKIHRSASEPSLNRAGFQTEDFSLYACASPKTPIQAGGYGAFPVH
# Outline: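 A375 cells (clone 1F10, endogenous C-terminal HiBiT on BRAF V600E) were seeded at 10,000 cells/well, grown 24 h, then dosed in duplicate with an 11-point series from 1 μM to 0.01 nM (0.2% DMSO). Nano-Glo HiBiT lytic luminescence was normalised to DMSO and wildtype-A375 background; DC50 was read at 50% protein remaining, alongside observed Dmax.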
# BRAF G466V = molecular target: T2, BRAF G466V (Homo sapiens, UniProt P15056, G466V); assay: BRAF HiBiT degradation assay, C-terminal HiBiT-tagged BRAF G466V overexpressed in HCT-116 BRAF−/− cells (clone 8), Nano-Glo HiBiT Lytic assay; settings: BRAF G466V (Class 3), HCT-116 BRAF−/− cells; for DC50: DC50 at 50% degradation; for Dmax: observed Dmax relative to DMSO control
# T2 construct: Horizon Discovery (HCT-116 BRAF−/− cells); host or cells: HCT-116 BRAF−/− cells, clone 8, lentiviral transduction
# T2 sequence (P15056 whole entry G466V): as the sequence (P15056 whole entry V600E, the tested form may be a part) above, with G466V, E600V counted along it
# Outline: (§1)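 HCT-116 BRAF−/− clones stably overexpressing C-terminal HiBiT-tagged mutant BRAF were seeded 24 h before treatment with an 11-point half-log series from 1 μM to 0.01 nM (0.2% DMSO final). Remaining protein was read by HiBiT lytic luminescence, with DMSO and wildtype-cell controls. DC50 was taken as the fitted concentration at 50% remaining protein; observed Dmax is reported relative to DMSO.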
# BRAF G469A = molecular target: T3, BRAF G469A (Homo sapiens, UniProt P15056, G469A); assay: BRAF HiBiT degradation assay, C-terminal HiBiT-tagged BRAF G469A overexpressed in HCT-116 BRAF−/− cells (clone 34), Nano-Glo HiBiT Lytic assay; settings: BRAF G469A (Class 2), HCT-116 BRAF−/− cells; for DC50: DC50 at 50% degradation; for Dmax: observed Dmax relative to DMSO control
# T3 construct: Horizon Discovery (HCT-116 BRAF−/− cells); host or cells: HCT-116 BRAF−/− cells, clone 34, lentiviral transduction
# T3 sequence (P15056 whole entry G469A): as the sequence (P15056 whole entry V600E, the tested form may be a part) above, with G469A, E600V counted along it
# Outline: as §1
# BRAF D594G = molecular target: T4, BRAF D594G (Homo sapiens, UniProt P15056, D594G); assay: BRAF HiBiT degradation assay, C-terminal HiBiT-tagged BRAF D594G overexpressed in HCT-116 BRAF−/− cells (clone 63), Nano-Glo HiBiT Lytic assay; settings: BRAF D594G (Class 3), HCT-116 BRAF−/− cells; for DC50: DC50 at 50% degradation; for Dmax: observed Dmax relative to DMSO control
# T4 construct: Horizon Discovery (HCT-116 BRAF−/− cells); host or cells: HCT-116 BRAF−/− cells, clone 63, lentiviral transduction
# T4 sequence (P15056 whole entry D594G): as the sequence (P15056 whole entry V600E, the tested form may be a part) above, with D594G, E600V counted along it
# Outline: as §1
Structure (SMILES),DC50 (BRAF V600E) [µM],Dmax (BRAF V600E) [%],DC50 (BRAF G466V) [µM],Dmax (BRAF G466V) [%],DC50 (BRAF G469A) [µM],Dmax (BRAF G469A) [%],DC50 (BRAF D594G) [µM],Dmax (BRAF D594G) [%]
"CCN(C)S(=O)(=O)Nc1cc(Cl)cc(-c2cn(-c3ccc(N4CCN(CC5CCN(c6ccc(C7CCC(=O)NC7=O)cn6)CC5)CC4)cn3)nc2-c2ccncc2)c1F (racemic) [Compound 312, Rac-(3R)-3-(6-{4-[(4-{6-[4-(5-chloro-3-{[ethyl(methyl)sulfamoyl]amino}-2-fluorophenyl)-3-(pyridin-4-yl)-1H-pyrazol-1-yl]pyridin-3-yl}piperazin-1-yl)methyl]piperidin-1-yl}pyridin-3-yl)piperidine-2,6-dione]",< 0.01,> 70,< 0.01,> 70,< 0.01,30 to 70,< 0.01,> 70
"CCC(C)S(=O)(=O)Nc1cc(Cl)cc(-c2cn(-c3ccc(N4CCN(CC5CCN(c6ccc(N7CCC(=O)NC7=O)cc6)CC5)CC4)cc3)nc2-c2ccncc2)c1F (racemic) [Compound 328, Rac-(2R)—N-[5-chloro-3-(1-{4-[4-({1-[4-(2,4-dioxo-1,3-diazinan-1-yl)phenyl]piperidin-4-yl}methyl)piperazin-1-yl]phenyl}-3-(pyridin-4-yl)-1H-pyrazol-4-yl)-2-fluorophenyl]butane-2-sulfonamide]",< 0.01,> 70,0.01 to 0.05,> 70,0.05 to 0.5,30 to 70,< 0.01,30 to 70
"O=C1CCC(c2ccc(N3CCC(CN4CCN(c5ccc(-n6cc(-c7cc(Cl)cc(NS(=O)(=O)N8CC(F)C8)c7F)c(-c7ccncc7)n6)cc5)CC4)CC3)nc2)C(=O)N1 (racemic) [Compound 332, Rac-N-{5-chloro-3-[1-(4-{4-[(1-{5-[(3R)-2,6-dioxopiperidin-3-yl]pyridin-2-yl}piperidin-4-yl)methyl]piperazin-1-yl}phenyl)-3-(pyridin-4-yl)-1H-pyrazol-4-yl]-2-fluorophenyl}-3-fluoroazetidine-1-sulfonamide]",< 0.01,> 70,< 0.01,> 70,< 0.01,> 70,< 0.01,30 to 70
"O=C1CCC(c2ccc(N3CCC(CN4CCN(c5ccc(-n6cc(-c7cc(Cl)cc(NS(=O)(=O)N8CC(F)C8)c7F)c(-c7ccncc7)n6)c(F)c5)CC4)CC3)nc2)C(=O)N1 (racemic) [Compound 337, Rac-N-{5-chloro-3-[1-(4-{4-[(1-{5-[(3R)-2,6-dioxopiperidin-3-yl]pyridin-2-yl}piperidin-4-yl)methyl]piperazin-1-yl}-2-fluorophenyl)-3-(pyridin-4-yl)-1H-pyrazol-4-yl]-2-fluorophenyl}-3-fluoroazetidine-1-sulfonamide]",< 0.01,> 70,< 0.01,> 70,0.01 to 0.05,30 to 70,< 0.01,30 to 70
"O=C1CCC(c2ccc(N3CCC(CN4CCCN(c5ccc(-n6cc(-c7cc(Cl)cc(NS(=O)(=O)N8CCCC8)c7F)c(-c7ccncc7)n6)c(F)c5)CC4)CC3)nc2)C(=O)N1 (racemic) [Compound 345, Rac-N-{5-chloro-3-[1-(4-{4-[(1-{5-[(3R)-2,6-dioxopiperidin-3-yl]pyridin-2-yl}piperidin-4-yl)methyl]-1,4-diazepan-1-yl}-2-fluorophenyl)-3-(pyridin-4-yl)-1H-pyrazol-4-yl]-2-fluorophenyl}pyrrolidine-1-sulfonamide]",< 0.01,> 70,> 0.5,30 to 70,> 0.5,< 30,> 0.5,< 30
